{
  "source": "patent US8629100B2",
  "about": "“Method of inhibiting clostridium difficile by administration of oritavancin” (The Medicines Company, priority 2007, dated 2014)",
  "key": {"[1]": {"test_system": "C. difficile spores (PCR ribotypes 001, 106 and 027)", "test": "Viability (recovery) of spores after antibiotic exposure, cellulose acetate filtration (Examples 3A, 3B)", "format": "cell-based", "method": "The experiments were in general performed by mixing C. difficile spores with an antibiotic, filtering the solution through cellulose acetate filters to collect the spores, applying the spore-containing filters to nutrient agar, and determining the number of spores remaining on the filters after a selected period of time.\nTherefore, the initial experiment included dilution of antimicrobial-containing spore suspensions prior to filtration and washing. Reaction volumes were 1 mL for all antimicrobial/control solutions.\n1 mL of control (de-ionised water+/−Tween-80) and test (antimicrobial containing) solutions were inoculated with 10 μL C. difficile spores (3 strains; PCR ribotypes 001, 106 and 027). Spore suspensions (time=1 min or 30 min) were transferred to filtration cupules and the appropriate volume of diluent (sterile de-ionised water+/−Tween-80) was added to achieve the dilution factors noted above. Samples were filtered onto cellulose acetate filters and washed with a further 50 mL of the appropriate diluent. Filters were transferred aseptically to Braziers CCEY agar containing 5 mg/L lysozyme and 2% lysed horse blood. This procedure was completed in duplicate. The culture media were incubated in an anaerobic atmosphere at 37° C. for 48 h and the numbers of C. difficile colonies were recorded.\nDiluent was first added to filtration cupules. 1 mL reactions were then added to the appropriate diluent (1 min and 30 min after reaction formation) and filtered onto cellulose acetate filters. The filters were washed with 50 mL of the appropriate diluent. The filters were then transferred aseptically to Braziers CCEY agar containing 5 mg/L lysozyme and 2% lysed horse blood. This procedure was completed in duplicate. Culture media were incubated in an anaerobic atmosphere at 37° C. for 48 h and the numbers of C. difficile colonies recorded"}, "C. difficile ATCC 43255": {"test_system": "C. difficile ATCC 43255", "test": "Hamster model of CDI, intravenous administration", "format": "in vivo, Syrian golden hamsters", "method": "C. difficile ATCC 43255 was used in all experiments. This strain was originally isolated from an abdominal wound and is toxin A+/B+ and binary toxin negative. C. difficile spores were prepared for the infection by incubating C. difficile cells on blood agar plate at 37° C. anaerobically for 7 days, to promote spore formation. The C. difficile colonies were resuspended in phosphate buffered saline (PBS) and mixed with an equal volume of 100% ethanol for one hour. The spores were centrifuged, resuspended in PBS, aliquoted, and frozen at −20° C. Spores were diluted in PBS for oral inoculation into hamsters.\nAll studies were performed in accordance with protocols that were approved by the Institutional Animal Care and Use Committee. […] One day later (Day 0), animals were infected orally with 10^5 C. difficile spores by oral gavage.\nStarting on Day 1 post-infection, either vehicle, vancomycin (50 mg/kg), or oritavancin formulated in 10% hydroxypropyl β-cyclodextrin (HPCD) (50 mg/kg) was administered intravenously […] to the hamsters (n=10/group). A total of either 1, 2 or 3 doses of oritavancin was injected on Days 1, 3, and 5, respectively (q2d).\nThe infected hamsters received the first dose of antibiotic on day 1 and treatment was repeated each 2 days for up to five days; an untreated group was used as control."}, "[2]": {"test_system": "C. difficile (CD) ATCC 43255", "test": "Hamster model of CDI, oral administration", "format": "in vivo, Syrian golden hamsters", "settings": "for Survival prolonged more than untreated animals: formulated in HPCD, gavage; for Mean survival time: ORI 100 mg/kg (HPCD), VA 50 mg/kg/day, oral, 5 days", "method": "C. difficile (CD) ATCC 43255 was used in all experiments. CD spores were prepared for the infection by incubating CD cells on blood agar plate at 37° C. anaerobically for 7 days, to promote spore formation. The CD colonies were resuspended in phosphate buffered saline (PBS) and mixed with an equal volume of 100% ethanol for one hour. The spores were centrifuged, resuspended in PBS, aliquoted, and frozen at −20° C. Spores were diluted in PBS for oral inoculation into hamsters.\nAll studies were performed in accordance with protocols that were approved by the Institutional Animal Care and Use Committee. […] One day later (Day 0), animals were infected orally with […] CD spores.\n1) Starting on Day 1 post-infection (PI), a single dose of either vehicle, vancomycin (VA) (50 mg/kg/day), or oritavancin (ORI) formulated in 10% hydroxypropyl β-cyclodextrin (HPCD) (10, 50 or 100 mg/kg/day) was administered to the hamsters (n=10/group) by gavage for 5 days.\nDetection of CD cells and toxins were detected in the caecal contents of animals at both the experimental and clinical endpoints. Presence of CD toxins (toxin A and B) were detected by using the CD TOX A/B IITM kit (Techlab) as described by the manufacturer. Limit of detection was ≧0.8 ng/mL for Toxin A and ≧2.5 ng/mL of Toxin B. Total viable cells (TC) (both vegetative and spore forms) were enumerated by serially diluting the caecal content by 10 fold in PBS containing 2% oxyrase (Oxyrase Inc). The caecal content dilutions were plated on Brazier's CCEY lysozyme agar (Lab160) without egg yolk. CD spores were counted by treating caecum samples with an equal volume of pure ethanol. The limit of detection (LOD) was 1.47 and 1.77 Log 10 CFU/g caecal content for TC and spores, respectively.\nData were analyzed by Kaplan-Meier and Log rank Wilcoxon tests survival analysis by using GraphPad Prism (version 5.00). A p-value lower than 0.05 (p<0.05) was considered to indicate statistical significance."}, "[3]": {"settings": "Example 3A: diluent added after reaction solutions, 1 min and 30 min exposure"}, "[4]": {"settings": "Example 3B: diluent added to cupules before reaction solutions, 1 min and 30 min"}, "[5]": {"settings": "three intravenous doses 50 mg/kg q2d (Days 1, 3, 5)"}},
  "data": [
    {"compound": "CN[C@H](CC(C)C)C(=O)N[C@H]1C(=O)N[C@@H](CC(N)=O)C(=O)N[C@H]2C(=O)N[C@H]3C(=O)N[C@H](C(=O)N[C@H](C(=O)O)c4cc(O)cc(O)c4-c4cc3ccc4O)[C@H](O[C@H]3C[C@](C)(N)[C@@H](O)[C@H](C)O3)c3ccc(c(Cl)c3)Oc3cc2cc(c3O[C@@H]2O[C@H](CO)[C@@H](O)[C@H](O)[C@H]2O[C@H]2C[C@](C)(NCc3ccc(-c4ccc(Cl)cc4)cc3)[C@@H](O)[C@H](C)O2)Oc2ccc(cc2Cl)[C@H]1O", "note": "[oritavancin, N-(4-(4-chlorophenyl)benzyl)A82846B]", "values": [
      {"measurement": "Recovery of C. difficile spores", "setting": "[1]; [3]", "value": "0 % of controls"},
      {"measurement": "Recovery of C. difficile spores", "setting": "[1]; [4]", "value": "0 % of controls"},
      {"measurement": "Survival longer than animals with equivalent dose and regimen (2×q2d) of vancomycin", "setting": "C. difficile ATCC 43255; 2 doses 50 mg/kg intravenous", "value": 5, "unit": "days"},
      {"measurement": "Survival prolonged compared to untreated animals", "setting": "C. difficile ATCC 43255; one intravenous dose 50 mg/kg (Day 1), in 10% HPCD", "value": 4, "unit": "days"},
      {"measurement": "Survival prolonged compared to untreated animals", "setting": "C. difficile ATCC 43255; [5]", "value": 7, "unit": "days"},
      {"measurement": "Survival prolonged compared to untreated animals", "setting": "C. difficile ATCC 43255; two intravenous doses 50 mg/kg q2d (Days 1 and 3), in 10% HPCD", "value": 5, "unit": "days"},
      {"measurement": "Survival prolonged more than untreated animals", "setting": "[2]; 10 mg/kg once daily for 5 days", "value": 9, "unit": "days"},
      {"measurement": "Survival prolonged more than untreated animals", "setting": "[2]; 50 mg/kg once daily for 5 days", "value": 13, "unit": "days"},
      {"measurement": "Survival prolonged more than untreated animals", "setting": "[2]; 100 mg/kg once daily for 5 days", "value": "> 17", "unit": "days"},
      {"measurement": "Efficacy compared to VA on Day 12 PI", "setting": "[2]; 100 mg/kg, HPCD", "value": "superior efficacy"},
      {"measurement": "Mean survival time", "setting": "[2]", "value": 17, "unit": "days"}
    ]},
    {"compound": "CN[C@H](CC(C)C)C(=O)N[C@H]1C(=O)N[C@@H](CC(N)=O)C(=O)N[C@H]2C(=O)N[C@H]3C(=O)N[C@H](C(=O)N[C@H](C(=O)O)c4cc(O)cc(O)c4-c4cc3ccc4O)[C@H](O)c3ccc(c(Cl)c3)Oc3cc2cc(c3O[C@@H]2O[C@H](CO)[C@@H](O)[C@H](O)[C@H]2O[C@H]2C[C@](C)(N)[C@H](O)[C@H](C)O2)Oc2ccc(cc2Cl)[C@H]1O", "note": "[vancomycin]", "values": [
      {"measurement": "Recovery of C. difficile spores", "setting": "[1]; [3]", "value": "25-60 % of controls"},
      {"measurement": "Recovery of C. difficile spores", "setting": "[1]; [4]", "value": "70-80 % of controls"},
      {"measurement": "Proportional survival rate on Day 5", "setting": "C. difficile ATCC 43255; 50 mg/kg q2d intravenous", "value": 30, "unit": "%"},
      {"measurement": "Treated animals that died between the second and third injections (Days 3 and 5)", "setting": "C. difficile ATCC 43255; 50 mg/kg q2d intravenous", "value": 70, "unit": "%"},
      {"measurement": "Survival prolonged compared to untreated animals", "setting": "C. difficile ATCC 43255; [5]", "value": 8, "unit": "days"},
      {"measurement": "Mean survival time", "setting": "[2]", "value": 12, "unit": "days"}
    ]}
  ]
}
